Reference: PMC7414093 (Proceedings of the National Academy of Sciences of the …, 2020)
Several values for one entry are separate records, joined by “and”; a condition that tells them apart may be missing. Equal values may be shown once.

Legend:
in vitro [1] = conditions: dog, CC50, compound alone, 72 h
MDCK-SIAT1 cells = conditions: for cytotoxic concentration (CC)50: dog
human cells = test system: human cells; design: method as in PMID 30846569; conditions: cited from earlier work
in vitro [2] = conditions: human, pH 7.4
[3] = test system: H5N1 pseudovirus expressing H5 A/Vietnam/1203/2004; assay: organism not typed; type: cell-based, influenza A virus; conditions: 72 h, read-out: EC50, virus neutralization
[4] = molecular target: H5 A/Vietnam/1203/2004 HA (Influenza A virus, UniProt Q5EP31); assay: biochemical; type: binding
[5] = test system: H1N1 virus expressing A/Solomon Islands/3/2006 (H1/SI06); assay: microbe, parasite or virus in culture; type: cell-based, influenza A virus
Solubility in PBS = type: physicochemical; conditions: aqueous buffer
[6] = test system: H1N1 virus expressing A/Beijing/262/1995 (H1/Beijing); assay: microbe, parasite or virus in culture; type: cell-based; conditions: Influenza A virus, H1N1, 72 h, read-out: EC50, virus neutralization

Row | SMILES | CC50 (in vitro [1]) [µM] | cytotoxic concentration (CC)50 (MDCK-SIAT1 cells) [µM] | CC50 (human cells) [µM] | k el (in vitro [2]; 0.42 mg) [s⁻¹] | half-life (in vitro [2]; microsomes) [min] | microsomal CLint (in vitro [2]; microsomes) [µL/min/mg] | EC50 [3] [µM] | EC50 [4] [µM] | CC50 (MDCK-SIAT1 cells; read-out: CC50, compound alone, 72 h) | protection from infection (in words) [5] | EC50 ([5]; Influenza A virus, H1N1, 72 h, read-out: EC50, virus neutralization) [µM] | solubility (Solubility in PBS) [µM] | EC50 [6] [µM]
1 | O=C(c1ccc(Cl)cc1Cl)N1CCO[C@H](c2ccccc2)C1 [F0045(R)] | 138 | > 130 | – | – | – | – | – | – | – | – | – | – | –
2 | CC(=O)Nc1ccc2oc(-c3ccnc(C(=O)N4CCN([C@H](c5ccccc5)c5nnn(C)n5)CC4)c3)nc2c1 [JNJ4796] | – | – | > 10 | – | – | – | – | – | – | – | – | – | –
3 | O=C(c1ccc(Cl)cc1Cl)N1CCO[C@@H](c2ccccc2)C1 [F0045(S)] | 102 | > 130 | – | 0.000283 | 40.8 | 41 | 22.8 ± 2.3 | 16.2 ± 3.4 | 157 µM and 84 µM and 98 µM | did not protect cells from infection | > 150 | > 500 | 1.6 ± 0.1
